In patent US20090181901A1, “COMPOSITIONS AND METHODS TO INCREASE BIOAVAILABILITY OF CAROTENOIDS” (priority 2007, published 2009):

Tests used:
[1] = In vitro stability of lutein in pH 7.0 buffer (UV-VIS degradation ratio); assay type: physicochemical
Procedure: 10.0 mg ([…]) lutein in 10 ml was added to a volumetric flask and diluted to volume with THF. In a small beaker, 0.50 g PEO (20) sorbitan monooleate was dissolved in 15.0 g de-ionized water. 1.0 ml lutein THF solution was added into the water solution and sonicated until a clear yellow micro-emulsion was formed.
10.0 mg (0.006 mmol) bilberry extract was added to a second 10 ml volumetric flask and filled to volume with de-ionized water. 1.0 ml bilberry extract solution was transferred to a small beaker and sonicated until a homogeneous solution was obtained. 1.0 ml of the bilberry solution was placed into a 10 ml colorless volumetric flask and filled to volume with sodium phosphate buffer (pH=7.0). The buffered solution was placed into a 37° C. water bath for 5 hours. UV-VIS spectrometery was used to analyze the degradation ratio. All samples were made alike. Similarly, L-cysteine was used in place of bilberry extract.

[2] = Stability of Lutein and Zeaxanthine in incubation medium (control experiment); assay type: physicochemical; details: for Stability in incubation medium: 37° C.; for Breakdown in incubation medium (in words): test assay conditions, 120 minutes at 37° C.
Excerpt: In a control experiment, the stability of the analytes under the experimental conditions was investigated.

CaCo-2 cells [3] = assay: Cellular uptake of Lutein and Zeaxanthine in CaCo-2 cells with or without black currant extract; assay type: in vitro ADME; details: for Level observed in cells: 9 mg Lutein+1 mg Zeaxanthine/100 mL; for Absorption in presence of black currant extract (in words): compared with absence of black currant extract; for Factor by which absorption is increased in presence of Black Currant extract: with vs without Black Currant extract
Procedure: CaCo-2 cells were cultured in Dulbeccos's Modified Eagle Medium (DMEM) containing 20% fetal bovine serum, 1.2% nonessential amino acids, 0.83 mM L-glutamine, 1.2% penicillin-streptomycin and 0.1% mercaptoethanole in an atmosphere of 5% CO2 and 95% air at 37° C.
(§1) Cells were grown in 75 cm^2 culture-flasks (T75) and sub-cultured after one week (every other day washed with PBS buffer, removed with trypsin and transferred to a new culture flask).
(§2) For experiments, cells were seeded in 6 well plates at a density of 3×10^5 cells per well and grown in an atmosphere of 5% CO2 and 95% air at 37° C., 7 to 8 days until confluence was reached. The cells were washed with PBS buffer, incubated with 4 ml medium containing the suspended samples for 30, 60 or 120 minutes.
(§3) After the corresponding incubation time, the cells were washed with PBS buffer and removed using 1 ml of TBME. Cells were sonicated 3 times for 30 seconds, centrifuged for 10 min and the pellets were discarded. The supernatant was used as sample for HPLC (lutein).
Cmax was taken directly from the concentration/time data obtained from the analysis.
The concentration/time data obtained from the analysis were further submitted to non-compartmental calculation of the AUC0-120min using the trapezoidal rule.
(§4) Quantification was performed by external standardization after linear regression analysis.
CaCo-2 cells were incubated with (9 mg Lutein+1 mg Zeaxanthine, see Table 6)/100 mL with or without 160 mg black currant extract/100 mL medium. Incubations were performed at 37° C. for 30, 60 and 120 minutes. At each time point, 3 wells were processed for analysis by collection of the incubation medium and extraction of Lutein/Zeaxanthine absorbed into the cells.

[4] = Cellular uptake of Lutein (free form) in CaCo-2 cells; assay type: in vitro ADME; details: human, 10 mg Lutein/100 mL medium, alone or plus 160 mg bilberry extract or 180 mg Bil/Cys
Procedure: (§5) CaCo-2 cells were cultured in Dulbeccos's Modified Eagle Medium containing 20% fetal bovine serum, 1.2% nonessential amino acids, 0.83 mM L-glutamine, 1.2% penicillin-streptomycin and 0.1% mercaptoethanole in an atmosphere of 5% CO2 and 95% air at 37° C.
as §1
as §2, with “C.” for “C.,”
as §3, with “(lutein). For luteindipalmitinic-ester the supernatant was hydrolyzed by reflux heating in ethanol/HCl.” for “(lutein).”
Cmax was taken directly from the concentration/time data obtained from the analysis. […]
Quantification was performed by external standardization after linear regression analysis. […]

CaCo-2 cells [5] = assay: Cellular uptake of Lutein (esterified form) in CaCo-2 cells; assay type: in vitro ADME; details: 20 mg Luteindipalmitinic-ester/100 mL medium, alone or plus 160 mg bilberry extract or 180 mg Bil/Cys; 37° C.; lutein quantified after hydrolysis
Procedure: as §5, §1
as §2, with “C.” for “C.,”, “minutes. […]” for “minutes.”
as §4
CaCo-2 cells were incubated with 20 mg Luteindipalmitinic-ester/100 mL medium, 20 mg (0.019 mmol) Luteindipalmitinic-ester plus 160 mg bilberry extract (25% anthocyanins, 0.08 mmol)/100 mL medium or 20 mg Luteindipalmitinic-ester plus 180 mg Bil/Cys [equivalent to 162 mg bilberry (25% anthocyanins, 0.081 mmol) and 18 mg (0.149 mmol) L-cysteine] at 37° C. for 30, 60 and 120 minutes. […] After hydrolysis of the luteinester, lutein was quantified in the cells.

[6] = Time 120 min, slight increase ascribed to evaporation of the medium
[7] = Time 0 min, with BC (160 mg black currant extract/100 mL)
[8] = Time 30 min, with BC (160 mg black currant extract/100 mL)
[9] = Time 60 min, with BC (160 mg black currant extract/100 mL)
[10] = Time 120 min, with BC (160 mg black currant extract/100 mL)
[11] = with BC (160 mg black currant extract/100 mL)

Row | Stability in incubation medium ([2]; Time 0 min) [%] | Stability in incubation medium [2, 6] [%] | Breakdown in incubation medium (in words) [2] | Relative cellular uptake (sum of lutein and Zeaxanthine set to 100%) (CaCo-2 cells [3]; 30 min, With Black Currant) [%] | Relative cellular uptake (sum of lutein and Zeaxanthine set to 100%) (CaCo-2 cells [3]; 30 min, Without Black Currant) [%] | Relative cellular uptake (sum of lutein and Zeaxanthine set to 100%) (CaCo-2 cells [3]; 60 min, With Black Currant) [%] | Relative cellular uptake (sum of lutein and Zeaxanthine set to 100%) (CaCo-2 cells [3]; 60 min, Without Black Currant) [%] | Relative cellular uptake (sum of lutein and Zeaxanthine set to 100%) (CaCo-2 cells [3]; 120 min, With Black Currant) [%] | Relative cellular uptake (sum of lutein and Zeaxanthine set to 100%) (CaCo-2 cells [3]; 120 min, Without Black Currant) [%] | Level observed in cells (CaCo-2 cells [3]; [7]) [ng/mL] | Level observed in cells (CaCo-2 cells [3]; Time 0 min, without BC) [ng/mL] | Level observed in cells (CaCo-2 cells [3]; [8]) [ng/mL] | Level observed in cells (CaCo-2 cells [3]; Time 30 min, without BC) [ng/mL] | Level observed in cells (CaCo-2 cells [3]; [9]) [ng/mL] | Level observed in cells (CaCo-2 cells [3]; Time 60 min, without BC) [ng/mL] | Level observed in cells (CaCo-2 cells [3]; [10]) [ng/mL] | Level observed in cells (CaCo-2 cells [3]; Time 120 min, without BC) [ng/mL] | Absorption in presence of black currant extract (in words) (CaCo-2 cells [3]) | AUC0-120 of cellular uptake (CaCo-2 cells [3]; [11]) [µg·min/mL] | Cmax of cellular uptake (CaCo-2 cells [3]; [11]) [ng/mL] | Compound | also measured
1 | – | – | – | – | – | – | – | – | – | – | – | – | – | – | – | – | – | – | – | – | N[C@@H](CS)C(=O)O [L-Cys, L-Cysteine] | Residual Ratio of lutein ([1]; 0.2 mg (0.17 μmol/ml) L-Cys, pH 7.0, 37° C., 5 hours, blank 86.82): 90.22%; Residual Ratio of lutein ([1]; 1.0 mg (0.8 μmol/ml) L-Cys, 4.3 μg free lutein, phosphate buffer pH 7.0, 37° C., 5 hours, blank (lutein alone) 86.82): 94.52%; Residual Ratio of lutein ([1]; 2.0 mg (1.7 μmol/ml) L-Cys, 4.3 μg free lutein, pH 7.0, 37° C., 5 hours, blank 86.82): 94.47%; Residual Ratio of lutein ([1]; 5.0 mg (4.1 μmol/ml) L-Cys, 4.3 μg free lutein, pH 7.0, 37° C., 5 hours, blank 86.82): 95.41%; Residual Ratio of lutein ([1]; 10.0 mg (8.2 μmol/ml) L-Cys, 4.3 μg free lutein, pH 7.0, 37° C., 5 hours, blank 86.82): 94.74%; Protection of lutein against degradation (in words) ([1]; neutral environmental conditions): remarkable protection; Concentration at which an enhanced protective effect on lutein was noted ([1]; pH 7.0, 37° C., 5 hours): about 4.1 μmol/ml
2 | 100 | 108 | no breakdown | 87.3 | 85.6 | 85.8 | 85.5 | 86.6 | 87.3 | 0 | 0 | 2120 | 776 | 2346 | 1420 | 1897 | 1170 | better absorption | 226.1 | 2346 | CC1=C[C@H](O)CC(C)(C)[C@H]1/C=C/C(C)=C/C=C/C(C)=C/C=C/C=C(C)/C=C/C=C(C)/C=C/C1=C(C)C[C@@H](O)CC1(C)C [Lutein, (3R,3′R,6′R)-beta, epsilon-carotene-3,3′-diol] | Factor by which absorption is increased in presence of Black Currant extract (CaCo-2 cells [3]): ~2; AUC0-120 of cellular uptake (CaCo-2 cells [3]; without BC): 122.3 µg·min/mL; Cmax of cellular uptake (CaCo-2 cells [3]; without BC): 1420 ng/mL; AUC(0-t) at 10 mg/100 mL ([4]; 37° C., 0-120 min, read-out: Total uptake of Lutein (AUC0-120min, trapezoidal rule) (converted)): 2250 ng·h/mL; Cmax at 10 mg/100 mL ([4]; 37° C., 30, 60, 120 minutes): 1530 ng/mL
3 | – | – | – | – | – | – | – | – | – | – | – | – | – | – | – | – | – | – | – | – | CCCCCCCCCCCCCCCC(=O)O[C@@H]1CC(C)=C(/C=C/C(C)=C/C=C/C(C)=C/C=C/C=C(C)/C=C/C=C(C)/C=C/[C@H]2C(C)=C[C@H](OC(=O)CCCCCCCCCCCCCCC)CC2(C)C)C(C)(C)C1 [Luteinester, Luteindipalmitinic-ester] | Cmax of cellular uptake of Luteinester (CaCo-2 cells [5]): 530 ng/mL; Total uptake of Luteinester (AUC0-120min, trapezoidal rule) (CaCo-2 cells [5]): 42.2 µg·min/mL
4 | 100 | 106 | no breakdown | 12.7 | 14.4 | 14.2 | 14.5 | 13.4 | 12.7 | 0 | 0 | 309 | 131 | 363 | 240 | 314 | 181 | better absorption | 35.01 | 363 | CC1=C(/C=C/C(C)=C/C=C/C(C)=C/C=C/C=C(C)/C=C/C=C(C)/C=C/C2=C(C)C[C@@H](O)CC2(C)C)C(C)(C)C[C@H](O)C1 [Zeaxanthine, (3R,3′R)-beta, beta carotene-3,3′-diol] | Absorption of zeaxanthine compared to lutein (in words) (CaCo-2 cells [3]): better absorption as compared to lutein; Factor by which absorption is increased in presence of Black Currant extract (CaCo-2 cells [3]): ~2; AUC0-120 of cellular uptake (CaCo-2 cells [3]; without BC): 20.17 µg·min/mL; Cmax of cellular uptake (CaCo-2 cells [3]; without BC): 240 ng/mL
